According to patent publication US20080293727A1, “Novel sulfonamide inhibitors of aspartyl protease” (priority 1992, published 2008):

target: HIV-1 protease (Human immunodeficiency virus type 1 group M subtype B, UniProt P04585); assay: Inhibition constants against HIV-1 protease (method of Pennington et al.); assay type: biochemical; conditions: HIV-1 protease; read-out: Ki value
Source text: We measured the inhibition constants of the compounds listed in Table VII against HIV-1 protease using the above-cited method of Pennington et al.

With `CC(C)CN(C[C@@H](O)[C@H](Cc1ccccc1)NC(=O)O[C@H]1CCOC1)S(=O)(=O)c1cccc(Cl)c1` [Compound 138, 3-Chloro-N-((2 syn,3S)-2-hydroxy-4-phenyl-3-((S)-tetrahydrofuran-3-yloxycarbonylamino)-butyl)-N-isobutyl-benzenesulfonamide] as the molecule, how does the Ki read?
The Ki was 1.4 nM.

`O=C1N[C@H](COC(=O)N[C@@H](Cc2ccccc2)[C@H](O)CN(CC2CCCC2)S(=O)(=O)c2ccc(Cl)cc2)CO1` [Compound 139, 4-Chloro-N-cyclopentylmethyl-N-(2-(syn)-hydroxy-3-((2-oxazolidon-4-(S)-yl-methyl)-oxycarbonylamino)-4-phenyl-butyl)-benzenesulfonamide] was tested. Which Ki did it give?
The Ki was 1.2 nM.

`COc1ccc(S(=O)(=O)N(CC2CCCC2)C[C@@H](O)[C@H](Cc2ccccc2)NC(=O)O[C@H]2CCOC2)cc1` [Compound 140, N-cyclopentylmethyl-N-((2 syn,3S)-2-hydroxy-4-phenyl-3-((S)-tetrahydrofuran-3-yloxycarbonylamino)-butyl)-4-methoxy-benzenesulfonamide] was tested. Which Ki did it give?
The Ki was < 0.1 nM.

With `C=CCOC(=O)N[C@@H](Cc1ccccc1)[C@H](O)CN(CC1CCCC1)S(=O)(=O)c1ccc(OC)cc1` [Compound 141, N-((3-allyloxycarbonylamino)-(2 syn,3S)-2-hydroxy-4-phenyl-butyl)-N-cyclopentylmethyl-4-methoxy-benzenesulfonamide] as the molecule, how does the Ki read?
The Ki was 0.1 nM.

For `COc1ccc(S(=O)(=O)N(CC2CCCC2)C[C@@H](O)[C@H](Cc2ccccc2)NC(=O)OCc2cccnc2)cc1` [Compound 142], which Ki is on record?
Its Ki is < 0.1 nM.

How did the Ki turn out when `CC(C)CN(C[C@@H](O)[C@H](Cc1ccccc1)NC(=O)O[C@H]1CCOC1)S(=O)(=O)c1ccc(-c2ccon2)s1` [Compound 145, 5-Isoxazol-3-yl-thiophene-2-sulfonic acid ((2 syn,3S)-2-hydroxy-4-phenyl-3-((S)-tetrahydrofuran-3-yloxycarbonylamino)-butyl)-isobutyl-amide] was run?
The Ki was 1.4 nM.

Which Ki does the source give for `C=CCOC(=O)N[C@@H](Cc1ccccc1)[C@H](O)CN(CC1CCCC1)S(=O)(=O)c1ccc(NC(C)=O)cc1` [Compound 146, N-(4-((3-(Allyloxycarbonylamino)-(2 syn,3S)-2-hydroxy-4-phenyl-butyl)-cyclopentylmethylsulfamoyl)-phenyl)-acetamide] here?
The Ki was 2 nM.

With `CC(=O)Nc1ccc(S(=O)(=O)N(CC2CCCC2)C[C@@H](O)[C@H](Cc2ccccc2)NC(=O)OCc2cccnc2)cc1` [Compound 147, N-(4-(Cyclopentylmethyl-((2 syn,3S)-2-hydroxy-4-phenyl-3-(pyridin-3-yl-methoxycarbonylamino)-butyl)-sulfamoyl)-phenyl)-acetamide] as the molecule, how does the Ki read?
The Ki was 1.6 nM.

`O=C(N[C@@H](Cc1ccccc1)[C@H](O)CN(CC1CCCC1)S(=O)(=O)c1ccccc1)O[C@H]1CCOC1` [Compound 148, N-Cyclopentylmethyl-N-((2 syn,3S)-2-hydroxy-4-phenyl-3-((S)-tetrahydrofuran-3-yloxycarbonylamino)-butyl)-benzenesulfonamide] was tested. Which Ki did it give?
Its Ki is 0.2 nM.

How did the Ki turn out when `O=C(N[C@@H](Cc1ccccc1)[C@H](O)CN(CC1CCCC1)S(=O)(=O)c1cccnc1)O[C@H]1CCOC1` [Compound 149, Pyridine-3-sulfonic acid cyclopentylmethyl-((2 syn,3S)-2-hydroxy-4-phenyl-3-((S)-tetrahydrofuran-3-yloxycarbonylamino)-butyl)-amide] was run?
The Ki was 1.7 nM.

How did the Ki turn out when `CC(C)CN(C[C@@H](O)[C@H](Cc1ccccc1)NC(=O)O[C@H]1CCOC1)S(=O)(=O)N1CCCCC1` [Compound 150, Piperidine-1-sulfonic acid ((2 syn,3S)-2-hydroxy-4-phenyl-3-((S)-tetrahydrofuran-3-yloxycarbonylamino)-butyl)-isobutyl-amide] was run?
The Ki was 6 nM.

Which Ki does the source give for `O=C(N[C@@H](Cc1ccccc1)[C@H](O)CN(CC1CCCC1)S(=O)(=O)c1ccc(OC(F)(F)F)cc1)O[C@H]1CCOC1` [Compound 151] here?
The Ki was 0.8 nM.

For `CC(C)CN(C[C@@H](O)[C@H](Cc1ccccc1)NC(=O)O[C@H]1CCOC1)S(=O)(=O)c1ccc(OC(F)(F)F)cc1` [Compound 152], which Ki is on record?
Its Ki is 2.5 nM.

With `COc1ccc(S(=O)(=O)N(CC(C)C)C[C@@H](O)[C@H](Cc2ccccc2)NC(=O)OCc2cccnc2)cc1` [Compound 153] as the molecule, how does the Ki read?
Its Ki is 0.2 nM.

With `C=CCOC(=O)N[C@@H](Cc1ccccc1)[C@H](O)CN(CC(C)C)S(=O)(=O)c1ccc(OC)cc1` [Compound 154] as the molecule, how does the Ki read?
The Ki was 0.5 nM.

With `C=C(COC)COC(=O)N[C@@H](Cc1ccccc1)[C@H](O)CN(CC(C)C)S(=O)(=O)c1ccc(NC(C)=O)cc1` [Compound 155, N-4-((2-(syn)-Hydroxy-3-((2-methoxymethyl-allyloxycarbonylamino)-4-(S)-phenyl-butyl)-isobutyl-sulfamoyl)-phenyl)-acetamide] as the molecule, how does the Ki read?
The Ki was 1.7 nM.

How did the Ki turn out when `C=CCOC(=O)N[C@@H](Cc1ccccc1)[C@H](O)CN(CC1CCCC1)S(=O)(=O)c1ccc2c(c1)CCN2C(C)=O` [Compound 156] was run?
The Ki was 2.8 nM.

How did the Ki turn out when `COc1ccc(S(=O)(=O)N(CC2CCCCC2)C[C@@H](O)[C@H](Cc2ccccc2)NC(=O)O[C@H]2CCOC2)cc1` [Compound 158, N-Cyclohexylmethyl-N-((2 syn,3S)-2-hydroxy-4-phenyl-3-((S)-tetrahydrofuran-3-yloxycarbonylamino)-butyl)-4-methoxy-benzenesulfonamide] was run?
Its Ki is < 0.1 nM.

`O=C(N[C@@H](Cc1ccccc1)[C@H](O)CN(CC1CCCCC1)S(=O)(=O)c1ccc(F)cc1)O[C@H]1CCOC1` [Compound 159, N-Cyclohexylmethyl-4-fluoro-N-((2 syn,3S)-2-hydroxy-4-phenyl-3-((S)-tetrahydrofuran-3-yloxycarbonylamino)-butyl)-benzenesulfonamide] was tested. Which Ki did it give?
The Ki was 0.2 nM.

Which Ki does the source give for `CC(=O)Nc1ccc(S(=O)(=O)N(CC2CCCCC2)C[C@@H](O)[C@H](Cc2ccccc2)NC(=O)O[C@H]2CCOC2)cc1` [Compound 160, N-(4-(Cyclohexylmethyl)-((2 syn,3S)-2-hydroxy-4-phenyl-3-((S)-tetrahydrofuran-3-yloxycarbonylamino)-butyl)-sulfamoyl-phenyl)-acetamide] here?
The Ki was 1 nM.

`CC(C)CN(C[C@@H](O)[C@H](Cc1ccccc1)NC(=O)O[C@H]1CCOC1)S(=O)(=O)N1CCOCC1` [Compound 161] was tested. Which Ki did it give?
Its Ki is 20 nM.

Which Ki does the source give for `C=C(COC)COC(=O)N[C@@H](Cc1ccccc1)[C@H](O)CN(CC1CCCC1)S(=O)(=O)c1ccc(OC)cc1` [Compound 162] here?
Its Ki is 0.5 nM.

With `COc1ccc(S(=O)(=O)N(CC(C)C)C[C@@H](O)[C@H](Cc2ccccc2)NC(=O)OCc2ccncc2)cc1` [Compound 163, N-((2 syn,3S)-2-Hydroxy-4-phenyl-3-(pyridin-4-yl-methoxycarbonylamino)-butyl)-N-isobutyl-4-methoxy-benzenesulfonamide] as the molecule, how does the Ki read?
Its Ki is 0.5 nM.

Which Ki does the source give for `CC(=O)Nc1ccc(S(=O)(=O)N(CC(C)C)C[C@@H](O)[C@H](Cc2ccccc2)NC(=O)OCCc2ccccc2)cc1` [Compound 164] here?
The Ki was 130 nM.

Which Ki does the source give for `Cc1ccc(S(=O)(=O)N(CC(C)C)C[C@@H](O)[C@H](Cc2ccccc2)NC(=O)O[C@H]2CCOC2)cc1` [Compound 165, N-((2 syn,3S)-2-Hydroxy-4-phenyl-3-((syn)-tetrahydrofuran-3-yloxycarbonylamino)-butyl)-N-isobutyl-4-methyl-benzenesulfonamide] here?
The Ki was 0.4 nM.

For `O=C(N[C@@H](Cc1ccccc1)[C@H](O)CN(CC1CCCC1)S(=O)(=O)c1ccc(O)cc1)OCc1cccnc1` [Compound 166, N-cyclopentylmethyl-4-hydroxy-N-((2 syn,3S)-2-hydroxy-4-phenyl-3-(pyridin-3-yl-methoxycarbonylamino)-butyl)-benzenesulfonamide], which Ki is on record?
Its Ki is < 0.1 nM.
